Laboratory results reported in the NIST ThermoML archive (doi:10.1016/j.jct.2013.05.030).
± gives the expanded uncertainty stated by the source.

Columns and labels:
[1] = 293.15 K; 101.33 kPa; Liquid; Vibrating tube method
[2] = activity coefficient (dimensionless); of the first substance listed, at infinite dilution; xn = mol fraction of the nth substance listed; settings: 101 kPa, Liquid, Chromatography, x1 = 0

| Structure (SMILES) | mass density [1] [kg/m3] | activity coefficient ([2]; 313.15 K) | activity coefficient ([2]; 333.15 K) | activity coefficient ([2]; 353.15 K) | activity coefficient ([2]; 373.15 K) |
| --- | --- | --- | --- | --- | --- |
| CCCCCCCCCCCCCC[P+](CCCCCC)(CCCCCC)CCCCCC.O=S(=O)([N-]S(=O)(=O)C(F)(F)F)C(F)(F)F | 1068.87 ± 8.6 |  |  |  |  |
| C=CCCCCC [1-heptene] + CCCCCCCCCCCCCC[P+](CCCCCC)(CCCCCC)CCCCCC.O=S(=O)([N-]S(=O)(=O)C(F)(F)F)C(F)(F)F |  | 1.03 ± 0.075 | 1.06 ± 0.077 | 1.1 ± 0.08 | 1.12 ± 0.082 |
| C#CCCCCC [1-heptyne] + CCCCCCCCCCCCCC[P+](CCCCCC)(CCCCCC)CCCCCC.O=S(=O)([N-]S(=O)(=O)C(F)(F)F)C(F)(F)F |  | 0.726 ± 0.055 | 0.749 ± 0.056 | 0.762 ± 0.057 | 0.782 ± 0.058 |
| C#CCCCC [1-hexyne] + CCCCCCCCCCCCCC[P+](CCCCCC)(CCCCCC)CCCCCC.O=S(=O)([N-]S(=O)(=O)C(F)(F)F)C(F)(F)F |  | 0.693 ± 0.053 | 0.709 ± 0.054 | 0.72 ± 0.054 | 0.732 ± 0.055 |
| C#CCCCCCCC [1-nonyne] + CCCCCCCCCCCCCC[P+](CCCCCC)(CCCCCC)CCCCCC.O=S(=O)([N-]S(=O)(=O)C(F)(F)F)C(F)(F)F |  | 0.853 ± 0.063 | 0.915 ± 0.067 | 0.956 ± 0.069 | 0.979 ± 0.071 |
| C#CCCCCCC [1-octyne] + CCCCCCCCCCCCCC[P+](CCCCCC)(CCCCCC)CCCCCC.O=S(=O)([N-]S(=O)(=O)C(F)(F)F)C(F)(F)F |  | 0.836 ± 0.062 | 0.865 ± 0.063 | 0.886 ± 0.065 | 0.899 ± 0.066 |
| C=CCCC [1-pentene] + CCCCCCCCCCCCCC[P+](CCCCCC)(CCCCCC)CCCCCC.O=S(=O)([N-]S(=O)(=O)C(F)(F)F)C(F)(F)F |  | 0.806 ± 0.06 | 0.824 ± 0.061 | 0.842 ± 0.062 | 0.85 ± 0.063 |
| C#CCCC [1-pentyne] + CCCCCCCCCCCCCC[P+](CCCCCC)(CCCCCC)CCCCCC.O=S(=O)([N-]S(=O)(=O)C(F)(F)F)C(F)(F)F |  | 0.613 ± 0.048 | 0.636 ± 0.049 | 0.663 ± 0.051 | 0.699 ± 0.053 |
| CC(C)=O [acetone] + CCCCCCCCCCCCCC[P+](CCCCCC)(CCCCCC)CCCCCC.O=S(=O)([N-]S(=O)(=O)C(F)(F)F)C(F)(F)F |  | 0.297 ± 0.033 | 0.327 ± 0.034 | 0.332 ± 0.034 | 0.334 ± 0.034 |
| c1ccccc1 [benzene] + CCCCCCCCCCCCCC[P+](CCCCCC)(CCCCCC)CCCCCC.O=S(=O)([N-]S(=O)(=O)C(F)(F)F)C(F)(F)F |  | 0.391 ± 0.036 | 0.405 ± 0.037 | 0.417 ± 0.038 | 0.437 ± 0.039 |
| CCC(C)=O [butanone] + CCCCCCCCCCCCCC[P+](CCCCCC)(CCCCCC)CCCCCC.O=S(=O)([N-]S(=O)(=O)C(F)(F)F)C(F)(F)F |  | 0.321 ± 0.034 | 0.309 ± 0.033 | 0.324 ± 0.034 | 0.331 ± 0.034 |
| C1CCCCCC1 [cycloheptane] + CCCCCCCCCCCCCC[P+](CCCCCC)(CCCCCC)CCCCCC.O=S(=O)([N-]S(=O)(=O)C(F)(F)F)C(F)(F)F |  | 0.87 ± 0.064 | 0.881 ± 0.065 | 0.891 ± 0.065 | 0.905 ± 0.066 |
| C1CCCCC1 [cyclohexane] + CCCCCCCCCCCCCC[P+](CCCCCC)(CCCCCC)CCCCCC.O=S(=O)([N-]S(=O)(=O)C(F)(F)F)C(F)(F)F |  | 0.795 ± 0.059 | 0.797 ± 0.059 | 0.798 ± 0.059 | 0.8 ± 0.059 |
| C1CCCCCCC1 [cyclooctane] + CCCCCCCCCCCCCC[P+](CCCCCC)(CCCCCC)CCCCCC.O=S(=O)([N-]S(=O)(=O)C(F)(F)F)C(F)(F)F |  | 0.963 ± 0.07 | 0.998 ± 0.072 | 1.07 ± 0.078 | 1.12 ± 0.082 |
| C1CCCC1 [cyclopentane] + CCCCCCCCCCCCCC[P+](CCCCCC)(CCCCCC)CCCCCC.O=S(=O)([N-]S(=O)(=O)C(F)(F)F)C(F)(F)F |  | 0.687 ± 0.052 | 0.698 ± 0.053 | 0.713 ± 0.054 | 0.721 ± 0.055 |
| C=CCCCC [hex-1-ene] + CCCCCCCCCCCCCC[P+](CCCCCC)(CCCCCC)CCCCCC.O=S(=O)([N-]S(=O)(=O)C(F)(F)F)C(F)(F)F |  | 0.907 ± 0.066 | 0.921 ± 0.067 | 0.93 ± 0.068 | 0.942 ± 0.068 |
| CCCCCC [hexane] + CCCCCCCCCCCCCC[P+](CCCCCC)(CCCCCC)CCCCCC.O=S(=O)([N-]S(=O)(=O)C(F)(F)F)C(F)(F)F |  | 1.1 ± 0.08 | 1.11 ± 0.081 | 1.12 ± 0.082 | 1.13 ± 0.083 |
| CO [methanol] + CCCCCCCCCCCCCC[P+](CCCCCC)(CCCCCC)CCCCCC.O=S(=O)([N-]S(=O)(=O)C(F)(F)F)C(F)(F)F |  | 1.08 ± 0.079 | 1.03 ± 0.074 | 0.922 ± 0.067 | 0.863 ± 0.063 |
| CCCCCCCCC [nonane] + CCCCCCCCCCCCCC[P+](CCCCCC)(CCCCCC)CCCCCC.O=S(=O)([N-]S(=O)(=O)C(F)(F)F)C(F)(F)F |  | 1.6 ± 0.12 | 1.67 ± 0.13 | 1.77 ± 0.14 | 1.87 ± 0.14 |
| CCCCCCCC [octane] + CCCCCCCCCCCCCC[P+](CCCCCC)(CCCCCC)CCCCCC.O=S(=O)([N-]S(=O)(=O)C(F)(F)F)C(F)(F)F |  | 1.4 ± 0.1 | 1.44 ± 0.11 | 1.46 ± 0.11 | 1.49 ± 0.11 |
| CCCCC [pentane] + CCCCCCCCCCCCCC[P+](CCCCCC)(CCCCCC)CCCCCC.O=S(=O)([N-]S(=O)(=O)C(F)(F)F)C(F)(F)F |  | 0.96 ± 0.07 | 0.978 ± 0.071 | 0.99 ± 0.072 | 1 ± 0.072 |
| CCCO [propan-1-ol] + CCCCCCCCCCCCCC[P+](CCCCCC)(CCCCCC)CCCCCC.O=S(=O)([N-]S(=O)(=O)C(F)(F)F)C(F)(F)F |  | 1.28 ± 0.095 | 1.15 ± 0.084 | 1.07 ± 0.078 | 0.953 ± 0.069 |
| Cc1ccccc1 [toluene] + CCCCCCCCCCCCCC[P+](CCCCCC)(CCCCCC)CCCCCC.O=S(=O)([N-]S(=O)(=O)C(F)(F)F)C(F)(F)F |  | 0.452 ± 0.039 | 0.472 ± 0.04 | 0.486 ± 0.041 | 0.51 ± 0.042 |
